Experimental data as given in US4112105A, “Anti-inflammatory 3-(substituted-amino)-2,1-benzisothiazoles” (Sterling Drug Inc., priority 1977, dated 1978).
Structures can show the parent of a compound that is named as a salt.

Tests used:
[1] = inhibition of carrageenin-induced foot edema test; type: in vivo; conditions: for inhibition in vivo at 324 µmol/kg: 0.324 mMole/kg; for inhibition in vivo at 80 µmol/kg: 0.08 mMole/kg; for side effects (footnote e): 4 hours post medication
Procedure: Anti-inflammatory activity was determined using (1) the inhibition of carrageenin-induced foot edema test essentially described by Van Arman et al., J. Pharmocol. Exptl. Therap. 150, 328 (1965) as a modification of the procedure of Winter et al., Proc. Soc. Exp. Biol. and Med. 111, 544 (1962) and (2) a modification of the inhibition of adjuvant-induced arthritis test described by Pearson, J. Chronic Diseases 16, 863 (1963) and Glenn et al., Am. J. Vet. Res. 26, 1180 (1965).
Representative examples of the compounds of this invention have been tested in the carrageenin edema and adjuvant arthritis tests as described hereinabove and found to have anti-inflammatory activity. Test data, given as percent inhibition at a dose expressed in millimoles (mMole/kg) are presented hereinbelow. All test compounds were administered orally.
The data for a number of examples are presented in several separate groups each representing the test results wherein anti-inflammatory activity was measured at one or more dose levels against a single set of controls.

[2] = inhibition of adjuvant-induced arthritis test; type: in vivo; conditions: for inhibition in vivo at 120 µmol/kg: 0.12 mMole/kg
Procedure: Anti-inflammatory activity was determined using (1) the inhibition of carrageenin-induced foot edema test essentially described by Van Arman et al., J. Pharmocol. Exptl. Therap. […] J. Vet.
All test compounds were administered orally.

[3] = acute oral toxicity, standard toxicological test procedures; conditions: in vivo; for LD50 at 168 h: acute oral, read-out: 7-day LD50
Procedure: Acute oral toxicity was determined for Examples 1E and (g) employing standard toxicological test procedures.

CCN(CC)CCCC(C)Nc1snc2ccccc12 (centres unmarked) [(g), 3-[4-(diethylamino)-1-methylbutylamino]-2,1-benzisothiazole diphosphate, reference compound]
inhibition in vivo at 20 µmol/kg ([1]; po, 0.02 mMole/kg): 0% | inhibition in vivo at 30 µmol/kg ([2]; po, 0.03 mMole/kg): 0% | inhibition in vivo at 60 µmol/kg ([2]; po, 0.06 mMole/kg): 1% | inhibition in vivo at 120 µmol/kg ([2]; po): 4% | inhibition in vivo at 240 µmol/kg ([2]; po, 0.24 mMole/kg): 0% | LD50 at 168 h [3]: 1730 mg/kg

CCN(CC)CCCC(C)NC(=O)c1ccc(Cl)cc1[N+](=O)[O-] (centres unmarked) [Example 1B, 4-chloro-N-[4-(diethylamino)-1-methylbutyl]-2-nitrobenzamide]
inhibition in vivo at 324 µmol/kg ([1]; po): 29% | inhibition in vivo at 324 µmol/kg ([2]; po, 0.324 mMole/kg): 16%

CCN(CC)CCCC(C)NC(=S)c1ccc(Cl)cc1[N+](=O)[O-].Cl (centres unmarked) [Example 1C, 4-chloro-N-[4-(diethylamino)-1-methylbutyl]-2-nitrothiobenzamide hydrochloride]
inhibition in vivo at 324 µmol/kg ([1]; po): 38% | side effects (footnote b) ([2]; oral, 0.324 mMole/kg): loss of hair, yellow urine | inhibition in vivo at 324 µmol/kg ([2]; po, 0.324 mMole/kg): 60%

CCN(CC)CCCC(C)Nc1snc2cc(Cl)ccc12 (centres unmarked) [Example 1D, 6-chloro-3-[4-(diethylamino)-1-methylbutylamino]-2,1-benzisothiazole]
anti-inflammatory activity in carrageenin edema assay (in words) ([1]; in vivo): high degree of anti-inflammatory activity | Carrageenin edema % inhibition ([1]; oral, 0.03 mMole/kg): 19% | inhibition in vivo at 90 µmol/kg ([1]; po, 0.09 mMole/kg): 14% | inhibition in vivo at 270 µmol/kg ([1]; po, 0.27 mMole/kg): 29% | anti-inflammatory activity in adjuvant arthritis assay (in words) ([2]; in vivo): high degree of anti-inflammatory activity | inhibition in vivo at 120 µmol/kg ([2]; po): 65% | toxicity (in words) [3]: low toxicity

CCN(CC)CCCC(C)Nc1snc2cc(Cl)ccc12 (centres unmarked) [Example 1E, 6-chloro-3-[4-(diethylamino)-1-methylbutylamino]-2,1-benzisothiazole diphosphate]
Carrageenin edema % inhibition ([1]; oral, 0.03 mMole/kg): 4% | Carrageenin edema % inhibition ([1]; oral, 0.09 mMole/kg): 25% | Carrageenin edema % inhibition ([1]; oral, 0.27 mMole/kg): 39% | side effects (footnote c) ([1]; oral, 0.64 mMole/kg): hypothermia | inhibition in vivo at 640 µmol/kg ([1]; po, 0.64 mMole/kg): 60% | toxicity in adjuvant arthritis test ([2]; oral, 0.24 mMole/kg): toxic | LD50 at 168 h [3]: 1430 mg/kg

CCN(CC)CCCC(C)N(C)c1snc2cc(Cl)ccc12 (centres unmarked) [Example 2C, 6-chloro-3-{[4-(diethylamino)-1-methylbutyl]methylamino}-2,1-benzisothiazole]
inhibition in vivo at 324 µmol/kg ([1]; po): 71% | toxicity in adjuvant arthritis test ([2]; oral, 0.324 mMole/kg): Toxic | inhibition in vivo at 72 µmol/kg ([2]; po, 0.072 mMole/kg): 0%

Clc1ccc2c(NCCN3CCCC3)snc2c1 [Example 3C, 6-chloro-3-{[2-(1-pyrrolidinyl)-ethyl]amino}-2,1-benzisothiazole]
inhibition in vivo at 30 µmol/kg ([1]; po, 0.03 mMole/kg): 15% | inhibition in vivo at 90 µmol/kg ([1]; po, 0.09 mMole/kg): 12% | inhibition in vivo at 270 µmol/kg ([1]; po, 0.27 mMole/kg): 32% | inhibition in vivo at 320 µmol/kg ([1]; po, 0.32 mMole/kg): 29% | inhibition in vivo at 640 µmol/kg ([1]; po, 0.64 mMole/kg): 52% | inhibition in vivo at 324 µmol/kg ([2]; po, 0.324 mMole/kg): 14%

CN1CCN(C(=S)c2ccc(Cl)cc2[N+](=O)[O-])CC1 [Example 4B, 1-(4-chloro-2-nitrothiobenzoyl)-4-methylpiperazine]
inhibition in vivo at 324 µmol/kg ([1]; po): 28% | inhibition in vivo at 324 µmol/kg ([2]; po, 0.324 mMole/kg): 0%

CN1CCN(c2snc3cc(Cl)ccc23)CC1 [Example 4C, 6-chloro-3-(4-methyl-1-piperazinyl)-2,1-benzisothiazole]
inhibition in vivo at 324 µmol/kg ([1]; po): 41% | inhibition in vivo at 324 µmol/kg ([2]; po, 0.324 mMole/kg): 10%

CN(C)CCNC(=S)c1ccc(Cl)cc1[N+](=O)[O-] [Example 5B, 4-chloro-N-[2-(dimethylamino)ethyl]-2-nitrothiobenzamide hydrochloride]
inhibition in vivo at 324 µmol/kg ([1]; po): 43% | inhibition in vivo at 324 µmol/kg ([2]; po, 0.324 mMole/kg): 2%

CN(C)CCNc1snc2cc(Cl)ccc12 [Example 5C]
inhibition in vivo at 30 µmol/kg ([1]; po, 0.03 mMole/kg): 19% | inhibition in vivo at 90 µmol/kg ([1]; po, 0.09 mMole/kg): 14% | inhibition in vivo at 270 µmol/kg ([1]; po, 0.27 mMole/kg): 29% | inhibition in vivo at 324 µmol/kg ([1]; po): 28% | inhibition in vivo at 324 µmol/kg ([2]; po, 0.324 mMole/kg): 0%

CN(C)CCCNC(=S)c1ccc(Cl)cc1[N+](=O)[O-] [Example 6B, 4-chloro-N-[3-(dimethylamino)propyl]-2-nitrothiobenzamide hydrochloride]
inhibition in vivo at 324 µmol/kg ([1]; po): 39% | inhibition in vivo at 324 µmol/kg ([2]; po, 0.324 mMole/kg): 8%

CN(C)CCCNc1snc2cc(Cl)ccc12 [Example 6C, 6-chloro-3-{[3-(dimethylamino)propyl]amino}-2,1-benzisothiazole dihydrochloride]
inhibition in vivo at 30 µmol/kg ([1]; po, 0.03 mMole/kg): 0% | inhibition in vivo at 90 µmol/kg ([1]; po, 0.09 mMole/kg): 24% | inhibition in vivo at 270 µmol/kg ([1]; po, 0.27 mMole/kg): 41% | inhibition in vivo at 324 µmol/kg ([1]; po): 35% | inhibition in vivo at 324 µmol/kg ([2]; po, 0.324 mMole/kg): 0%

CN(C)CCCCNC(=S)c1ccc(Cl)cc1[N+](=O)[O-] [Example 7B, 4-chloro-N-[4-(dimethylamino)butyl]-2-nitrothiobenzamide]
side effects (footnote d) ([1]; oral, 1.11 mMole/kg): salivation | inhibition in vivo at 1110 µmol/kg ([1]; po, 1.11 mMole/kg): 63% | inhibition in vivo at 800 µmol/kg ([2]; po, 0.80 mMole/kg): 15%

CN(C)CCCCNc1snc2cc(Cl)ccc12 [Example 7C, 6-chloro-3-{[4-(dimethylamino)butyl]amino}-2,1-benzisothiazole]
inhibition in vivo at 30 µmol/kg ([1]; po, 0.03 mMole/kg): 0% | inhibition in vivo at 90 µmol/kg ([1]; po, 0.09 mMole/kg): 9% | inhibition in vivo at 270 µmol/kg ([1]; po, 0.27 mMole/kg): 32% | inhibition in vivo at 324 µmol/kg ([2]; po, 0.324 mMole/kg): 25%

CN1CCN(c2snc3ccc(Cl)cc23)CC1 [Example 8, 5-chloro-3-(4-methyl-1-piperazinyl)-2,1-benzisothiazole]
inhibition in vivo at 80 µmol/kg ([1]; po): 15% | inhibition in vivo at 324 µmol/kg ([1]; po): 51% | inhibition in vivo at 324 µmol/kg ([2]; po, 0.324 mMole/kg): 0%

CN(C)CCNc1snc2ccc(Cl)cc12 [Example 9]
inhibition in vivo at 80 µmol/kg ([1]; po): 8% | inhibition in vivo at 320 µmol/kg ([1]; po, 0.32 mMole/kg): 0% | inhibition in vivo at 324 µmol/kg ([1]; po): 0% | inhibition in vivo at 640 µmol/kg ([1]; po, 0.64 mMole/kg): 23%

CCN(CC)CCCC(C)Nc1snc2ccc(Cl)cc12 (centres unmarked) [Example 10]
side effects (footnote e) ([1]; oral, 0.32 mMole/kg): skeletal muscle relaxation, hypothermia and ptosis | side effects (footnote e) ([1]; oral, 0.64 mMole/kg): skeletal muscle relaxation, hypothermia and ptosis | inhibition in vivo at 80 µmol/kg ([1]; po): 0% | inhibition in vivo at 320 µmol/kg ([1]; po, 0.32 mMole/kg): 62% | inhibition in vivo at 324 µmol/kg ([1]; po): 15% | inhibition in vivo at 640 µmol/kg ([1]; po, 0.64 mMole/kg): 50%

CCN(CCO)CCCC(C)Nc1snc2cc(Cl)ccc12 (centres unmarked) [Example 11, 6-chloro-3-<{4-[N-ethyl-N-(2-hydroxyethyl)amino]-1-methylbutyl}amino>-2,1-benzisothiazole 1,5-naphthalenedisulfonate]
inhibition in vivo at 80 µmol/kg ([1]; po): 18% | inhibition in vivo at 324 µmol/kg ([1]; po): 38% | inhibition in vivo at 240 µmol/kg ([2]; po, 0.24 mMole/kg): 54% | inhibition in vivo at 320 µmol/kg ([2]; po, 0.32 mMole/kg): 67% | inhibition in vivo at 324 µmol/kg ([2]; po, 0.324 mMole/kg): 36% | inhibition in vivo at 400 µmol/kg ([2]; po, 0.40 mMole/kg): 71%

CCN(CC)CC(O)CNc1snc2cc(Cl)ccc12 (centres unmarked) [Example 12, 6-chloro-3-{[3-(diethylamino)-2-hydroxypropyl]amino}-2,1-benzisothiazole]
inhibition in vivo at 80 µmol/kg ([1]; po): 14% | inhibition in vivo at 324 µmol/kg ([1]; po): 35% | inhibition in vivo at 324 µmol/kg ([2]; po, 0.324 mMole/kg): 16%

Clc1ccc2c(NCCN3CCN(c4ccccc4)CC3)snc2c1 [Example 13, 6-chloro-3-{[2-(4-phenyl-1-piperazinyl)ethyl]amino}-2,1-benzisothiazole]
inhibition in vivo at 64 µmol/kg ([1]; po, 0.064 mMole/kg): 35% | inhibition in vivo at 80 µmol/kg ([1]; po): 11% | inhibition in vivo at 324 µmol/kg ([1]; po): 16%

CCN(CC)Cc1cc(Nc2snc3ccc(Cl)cc23)ccc1O [Example 14, 5-chloro-3-{[3-(diethylamino)methyl-4-hydroxyphenyl]amino}-2,1-benzisothiazole]
inhibition in vivo at 80 µmol/kg ([1]; po): 22% | inhibition in vivo at 324 µmol/kg ([1]; po): 72% | inhibition in vivo at 80 µmol/kg ([2]; po, 0.08 mMole/kg): 0%

CCN(CC)Cc1cc(Nc2snc3cc(Cl)ccc23)ccc1O [Example 15, 6-chloro-3-{[3-(diethylamino)methyl-4-hydroxyphenyl]amino}-2,1-benzisothiazole]
inhibition in vivo at 320 µmol/kg ([1]; po, 0.32 mMole/kg): 30% | inhibition in vivo at 640 µmol/kg ([1]; po, 0.64 mMole/kg): 32%

CCN(CC)Cc1cc(Nc2snc3ccccc23)ccc1O [Example 16, 3-{[3-(diethylamino)methyl-4-hydroxyphenyl]amino}-2,1-benzisothiazole]
inhibition in vivo at 80 µmol/kg ([1]; po): 2% | inhibition in vivo at 324 µmol/kg ([1]; po): 55% | inhibition in vivo at 324 µmol/kg ([2]; po, 0.324 mMole/kg): 18%
